Reference: patent US20260344670A1, “BIXLOZONE MIXTURES WITH PETHOXAMID” (FMC CORPORATION, priority 2022, published 2026)

Legend:
Format in all cases: in vivo
weeds [1] = test: Example 5: pre-emergence weed control on corn at relatively low application rates of pethoxamid (Table 13); settings: 300 g/ha pethoxamid
Procedure: (§1) The herbicidal compounds bixlozone and pethoxamid were applied in a variety of forms and at a variety of amounts, application rates, and normalities. Efficacy of the herbicidal compositions was evaluated with reference to a scale of 0% to 100% in comparison with untreated control plots. 0 means no damage to the harmful plants and 100 means complete destruction of the harmful plants. Plants per square meter is indicated by “pl/m^2”, and grams per hectare is indicated by “g/ha”. The acronym “EC” means emulsifiable concentrate (a liquid, homogenous formulation to be applied as an emulsion after dilution with water); “SC” means suspension concentrate (a stable suspension of active ingredient(s) with water as the fluid); “ZC” refers to a mixed formulation of CS and SC (a stable suspension of capsules and active ingredient(s) in a fluid, normally intended for dilution with water before use).
(§2) Various forms, compositions, and mixtures of bixlozone and pethoxamid were applied to corn before emergence. […] Mixtures of bixlozone with 300 g/ha pethoxamid improved weed spectrum on a range of broad leaf weeds (e.g., SOLNI and ABUTH). Combinations of bixlozone and pethoxamid in pre-emergence applications were very safe with no clear pethoxamid rate effect.

weeds [2] = test: Example 3: pre-emergence weed control on corn at relatively high application rates of pethoxamid (Tables 8-11); settings: 1200 g/ha pethoxamid
From the text: [formula] • where ppm=milligrams of active ingredient (=a.i.) per liter of spray mixture X=% action by component A using p ppm of active ingredient Y=% action by component B using q ppm of active ingredient. If the ratio R defined as the action actually observed (O) divided by the expected action (E) is >1 then the action of the combination is superadditive, i.e. there is a synergistic effect. For a more detailed description of the Colby formula, see Colby, S. R. “Calculating Synergistic and Antagonistic Responses of Herbicide Combination”, Weeds, Vol. 15, pages 20-22; 1967; see also Limpel et al., Proc. NEWCC 16:48-53 (1962).
As used herein, rating timings correspond to the following: A1=weed assessment at BBCH 11-12; A2=4 weeks after the application; A3=when ZEAMX crop reaches BBCH 18 (row closure); and A4=BBCH 51-59 of the ZEAMX crop.
The herbicidal compounds bixlozone and pethoxamid were applied in a variety of forms and at a variety of amounts, application rates, and normalities. Efficacy of the herbicidal compositions was evaluated with reference to a scale of 0% to 100% in comparison with untreated control plots. 0 means no damage to the harmful plants and 100 means complete destruction of the harmful plants. Plants per square meter is indicated by “pl/m^2”, and grams per hectare is indicated by “g/ha”. […]

weeds [3] = test: Example 4: pre-emergence weed control on corn at relatively medium application rates of pethoxamid (Table 12); settings: 800 g/ha pethoxamid
Procedure: as §1
as §2, with “800” for “300”, “CHEAL” for “SOLNI”, “ABUTH) and grasses (e.g., ECHCG, DIGSA, and SETVI).” for “ABUTH).”

CC1(C)CON(Cc2ccc(Cl)cc2Cl)C1=O [bixlozone] was tested, and the “efficacy (in words)” value (weeds [1]) was “minimal differences in performance between SC and CS were observed, except on POLSS, SOLNI, ABUTH, and ECHCG”, the “efficacy (in words)” value (weeds [2]) was “minimal differences in performance between SC and CS were observed, except on CHEAL and ECHCG” and the “efficacy (in words)” value (weeds [3]) was “minimal differences in performance between SC and CS were observed, except on CHEAL and ABUTH”.
